TGI and GI50 data for 22 molecules are collected here from PubChem BioAssay (NCI).

Converted amounts (≈) assume the structure as drawn. “And” between values parts separate entries of the source, which are not always exact repeats. Identical values can stand only once.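 Five concentrations, 48 hours, 96-well plates. GI50: concentration for 50% inhibition of growth. Definition used: TGI = concentration required for complete inhibition of growth.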 Some results are limits rather than exact numbers.

Among the test systems are CCRF-CEM leukemia; HOP-62 NSCLC; HT29 colon; MOLT-4 leukemia; RPMI-8226 leukemia; SNB-19 CNS; TK-10 renal; MDA-MB-435; PC-3 prostate; NCI/ADR-RES ovarian.
Common to all, as to experiment: NCI-60 cell line screen, 48 h

In the case of `CCOC(=O)C1CCn2c(nc3c2c(=O)n(C)c(=O)n3C)S1` (configuration not stated), the TGI in the test on CCRF-CEM leukemia, in the test on HOP-62 NSCLC, with HT29 colon, with MOLT-4 leukemia, in the test on RPMI-8226 leukemia and with SNB-19 CNS was more than 100 µM throughout. This molecule gave a TGI with TK-10 renal of more than 100 µM.
For `COC(=O)C1C(O)CCC2CN3CCc4c([nH]c5cccc(OC)c45)C3CC21` (configuration not stated), the TGI in the test with CCRF-CEM leukemia, in the test on HOP-62 NSCLC, in the test with HT29 colon, in the test with MDA-MB-435, with MOLT-4 leukemia and with PC-3 prostate was more than 100 µM in each case. Besides, the TGI in the test on RPMI-8226 leukemia, in the test with SNB-19 CNS and with TK-10 renal was more than 100 µM each time.
On to `O=C(CCN1CC2CCC(CC2)C1)c1cccs1`, for which the TGI with CCRF-CEM leukemia turned out to be 4.81 µM; in the test with HOP-62 NSCLC it was 45.5 µM; in the test with HT29 colon, 61.6 µM; in the test on MDA-MB-435 it was 42.3 µM; with MOLT-4 leukemia it was 18.7 µM; with NCI/ADR-RES ovarian it was 62.1 µM. The TGI in the test on PC-3 prostate was 31.1 µM; in the test on RPMI-8226 leukemia, 12.4 µM; in the test with SNB-19 CNS it was more than 100 µM; in the test on TK-10 renal it was 23.3 µM.
`N#CC(c1ccccc1)N1CCCN(C(C#N)c2ccccc2)C1c1ccccc1O` (configuration not stated): the TGI in the test on CCRF-CEM leukemia, in the test with HOP-62 NSCLC, in the test on HT29 colon, in the test with MDA-MB-435, with MOLT-4 leukemia and with NCI/ADR-RES ovarian was more than 100 µM each time. The TGI in the test with PC-3 prostate, in the test with RPMI-8226 leukemia, in the test on SNB-19 CNS and with TK-10 renal was more than 100 µM throughout.
Turning to `CC1(C)CC(=O)C2=C(C1)NC(SSC1=C(C#N)C(c3ccc(F)cc3)C3=C(CC(C)(C)CC3=O)N1)=C(C#N)C2c1ccc(F)cc1` (configuration not stated), the GI50 is 34.1 mg/L in the test on CCRF-CEM leukemia; 108 mg/L (≈ 164 µM) in the test with HOP-62 NSCLC; 25.1 mg/L in the test on HT29 colon; 26.2 mg/L (≈ 40 µM) in the test on MDA-MB-435; 39.1 mg/L in the test on MOLT-4 leukemia; 40.9 mg/L (≈ 62.5 µM) with NCI/ADR-RES ovarian. The GI50 is 27.1 mg/L in the test with PC-3 prostate, 50.5 mg/L (≈ 77.1 µM) in the test with RPMI-8226 leukemia, 77.1 mg/L (≈ 118 µM) with SNB-19 CNS and 23.6 mg/L (≈ 36.1 µM) in the test with TK-10 renal. Moreover, the TGI in the test on CCRF-CEM leukemia was 136 mg/L; in the test with HOP-62 NSCLC, more than 150 mg/L; in the test with HT29 colon it was 47.2 mg/L; in the test on MDA-MB-435, 46.9 mg/L; in the test on MOLT-4 leukemia, 118 mg/L; with NCI/ADR-RES ovarian it was 128 mg/L. Further, the TGI with PC-3 prostate is 48 mg/L; with RPMI-8226 leukemia, 118 mg/L; in the test with SNB-19 CNS, more than 150 mg/L; in the test on TK-10 renal, 46 mg/L.
As to `C[C@]12CCC(=O)C=C1CC[C@@H]1[C@@H]2[C@@H](O)C[C@@]2(C)[C@H]1CC[C@]2(O)C(=O)CO`, the TGI in the test on CCRF-CEM leukemia, in the test with HOP-62 NSCLC, in the test on HT29 colon, with MDA-MB-435, in the test on MOLT-4 leukemia and in the test on NCI/ADR-RES ovarian was more than 100 µM each time. Also, the TGI with PC-3 prostate, in the test on RPMI-8226 leukemia, with SNB-19 CNS and with TK-10 renal was more than 100 µM in each case.
For `CC(=O)N(C)c1ccc2c(ccc[n+]2[O-])c1[N+](=O)[O-]`, the TGI in the test on CCRF-CEM leukemia, in the test on HOP-62 NSCLC, with HT29 colon, with MOLT-4 leukemia, in the test on RPMI-8226 leukemia and in the test with TK-10 renal was more than 100 µM throughout.
As to `Nc1nc(N)c2c(n1)NC(c1ccccc1)CC(/C=C/c1ccc(Cl)cc1)=N2` (configuration not stated), the TGI in the test with CCRF-CEM leukemia was found to be 50.4 µM; with HOP-62 NSCLC it was 34 µM; in the test with HT29 colon, 15.2 µM; in the test with MDA-MB-435, 21.1 µM; in the test with MOLT-4 leukemia, 12.6 µM; in the test with NCI/ADR-RES ovarian, 11.3 µM. For the same molecule, the TGI worked out at 22 µM in the test with PC-3 prostate, 12.7 µM in the test with RPMI-8226 leukemia, 29.1 µM in the test with SNB-19 CNS and 8.64 µM with TK-10 renal.
`O=[n+]1c2c(n([O-])c3ccccc31)-c1cccc3cccc-2c13`: the TGI in the test with CCRF-CEM leukemia, with HT29 colon, in the test with MDA-MB-435, with MOLT-4 leukemia, with NCI/ADR-RES ovarian and with PC-3 prostate was more than 100 µM in each case. Moreover, the TGI with SNB-19 CNS and in the test on TK-10 renal was more than 100 µM throughout.
In the case of `CC1(C)CCC2(C(=O)OC3OC(CO)C(O)C(O)C3O)CCC3(C)C(=CCC4C5(C)CCC(OC6OC(CO)C(O)C(O)C6O)C(C)(C)C5CCC43C)C2C1` (configuration not stated), the TGI with CCRF-CEM leukemia was 14 µM; in the test on HOP-62 NSCLC, more than 25 µM; in the test on HT29 colon, more than 25 µM; in the test with MDA-MB-435, more than 25 µM; with MOLT-4 leukemia, 13.7 µM; with PC-3 prostate it was more than 25 µM. Also, the TGI with RPMI-8226 leukemia was 10.7 µM; in the test on SNB-19 CNS, more than 25 µM; in the test with TK-10 renal it was more than 25 µM.
Take `COc1ccc(/C=C(\C#N)c2nc(N)nc(N3N=C(C)CC3(C)C)n2)c(O)c1`: the TGI stood at 76.9 µM in the test with CCRF-CEM leukemia; 43.6 µM with HOP-62 NSCLC; 44.5 µM in the test with HT29 colon; 33.1 µM with MDA-MB-435; 34.1 µM with MOLT-4 leukemia; 97.3 µM with NCI/ADR-RES ovarian. The TGI with PC-3 prostate was more than 100 µM; in the test on RPMI-8226 leukemia, 98.7 µM; in the test with SNB-19 CNS it was more than 100 µM; in the test with TK-10 renal it was 77.7 µM.
For the molecule `[O-][N+](CCO)(CCO)c1ncnc2nc[nH]c12`, the TGI with CCRF-CEM leukemia, in the test on HOP-62 NSCLC, with HT29 colon, in the test on MDA-MB-435, in the test on MOLT-4 leukemia and in the test with NCI/ADR-RES ovarian was more than 100 µM in each case. Further, the TGI with PC-3 prostate, with RPMI-8226 leukemia, in the test on SNB-19 CNS and with TK-10 renal was more than 100 µM throughout.
Consider `COC(=O)C1C(C)N1C` (configuration not stated), for which the TGI in the test on CCRF-CEM leukemia, in the test with HOP-62 NSCLC, in the test with HT29 colon, with MOLT-4 leukemia, in the test with RPMI-8226 leukemia and in the test with SNB-19 CNS was more than 100 µM each time. In the test on TK-10 renal, this molecule gave a TGI of more than 100 µM.
On to `O=S1(=O)OC(c2ccc(O)cc2)(c2ccc(O)cc2)c2ccccc21`, for which the TGI with CCRF-CEM leukemia, in the test on HOP-62 NSCLC, in the test on HT29 colon, with MDA-MB-435, in the test with MOLT-4 leukemia and with NCI/ADR-RES ovarian was more than 100 µM throughout. For the same molecule, the TGI in the test on PC-3 prostate, with RPMI-8226 leukemia, in the test with SNB-19 CNS and in the test with TK-10 renal was more than 100 µM throughout.
Take `CC(Sc1ccccc1)C(CO)(CO)[N+](=O)[O-]` (configuration not stated): the TGI in the test on CCRF-CEM leukemia stood at 7.51 µM; in the test with HOP-62 NSCLC, 35.5 µM; with HT29 colon it was 32.9 µM; with MOLT-4 leukemia it was 19.3 µM; in the test with RPMI-8226 leukemia, 49.2 µM; in the test with SNB-19 CNS, 43.8 µM. Besides, the TGI in the test with TK-10 renal stood at 33.7 µM.
For the molecule `C[C@]12CC[C@@H]3c4ccccc4CC[C@H]3[C@@H]1CC[C@@H]2O`, the TGI with CCRF-CEM leukemia, with HOP-62 NSCLC, with MOLT-4 leukemia, with RPMI-8226 leukemia, with SNB-19 CNS and in the test on TK-10 renal was more than 100 µM each time.
On to `CC[C@@]1(O)C(=O)OCc2c1cc1n(c2=O)Cc2c-1nc1ccc(O)cc1c2CC[Si](C)(C)C`, for which the TGI in the test on CCRF-CEM leukemia is 0.464 µM; with HOP-62 NSCLC, 0.0106 µM; in the test on MDA-MB-435 it was 0.495 µM and 0.887 µM; in the test on MOLT-4 leukemia it was 0.00221 µM; with NCI/ADR-RES ovarian, 1.84 µM and 1.56 µM; in the test on PC-3 prostate, more than 100 µM. For the same molecule, the TGI in the test on RPMI-8226 leukemia is 0.348 µM; in the test on SNB-19 CNS it was more than 100 µM; in the test on TK-10 renal it was 0.693 µM and 0.749 µM. Also, the GI50 with PC-3 prostate was 0.0525 µM.
Regarding `Clc1ccc(Nc2nc(Cl)c3[nH]cnc3n2)cc1Cl`, the TGI in the test with CCRF-CEM leukemia was 48.2 µM; in the test with HOP-62 NSCLC it was 52.5 µM; in the test with HT29 colon, 43.9 µM; in the test with MDA-MB-435, 80.3 µM; in the test on MOLT-4 leukemia, 61.3 µM; in the test on NCI/ADR-RES ovarian, more than 100 µM. The TGI in the test with PC-3 prostate is 66.2 µM; in the test on RPMI-8226 leukemia it was 83 µM; in the test with SNB-19 CNS, more than 100 µM; in the test on TK-10 renal it was more than 100 µM.
In the case of `Cc1cc(O)c(C(C)C)cc1CN1CCCCC1`, the TGI in the test with CCRF-CEM leukemia, in the test with HOP-62 NSCLC, in the test on HT29 colon, with MDA-MB-435, in the test with MOLT-4 leukemia and in the test with NCI/ADR-RES ovarian was more than 100 µM throughout. For the same molecule, the TGI with PC-3 prostate, with RPMI-8226 leukemia, with SNB-19 CNS and with TK-10 renal was more than 100 µM each time.
Regarding `CC(=O)OC1CC(O)CC2=CCC3C4CCC(C(C)(O)C(O)CC5COC(=O)C5C)C4(C)CCC3C21C` (configuration not stated), the TGI in the test with CCRF-CEM leukemia, with HOP-62 NSCLC, in the test with HT29 colon, in the test with MDA-MB-435, in the test with MOLT-4 leukemia and with PC-3 prostate was more than 25 µM each time. For the same molecule, the TGI in the test on RPMI-8226 leukemia, with SNB-19 CNS and with TK-10 renal was more than 25 µM each time.
With `C/C(=N\NC(=O)c1cccnc1)c1cccc(/C(C)=N/NC(=O)c2cccnc2)n1`, the GI50 with CCRF-CEM leukemia was 3.49 µM; with HT29 colon, 2.63 µM; in the test with MOLT-4 leukemia it was 2.45 µM. Also, the TGI is more than 100 µM with CCRF-CEM leukemia; more than 100 µM in the test with HT29 colon; 12 µM with MOLT-4 leukemia; more than 100 µM in the test on SNB-19 CNS; more than 100 µM with TK-10 renal.
In the case of `Nc1ccc2c(c1)C(=O)N(O)C2=O`, the TGI in the test with CCRF-CEM leukemia, with HOP-62 NSCLC, in the test on HT29 colon, with MOLT-4 leukemia, in the test with SNB-19 CNS and in the test on TK-10 renal was more than 100 µM each time.
